Measurements reported in patent EP4772649A1, “SCREENING METHOD FOR ODOR-SUPPRESSING MATERIAL” (Takasago International Corporation, priority 2023, dated 2025).
Entries after “also recorded” stand apart in the source; their conditions may differ.

Experiments:
[1] = test system: olfactory receptor OR2AG2; experiment: Luciferase reporter gene assay of olfactory receptor response (Fold Increase) in HEK293T cells expressing OR2AG2; format: cell-based, human; details: for OR2AG2 response (Fold Increase value): screening of 1,367 odorant substances, 1 µM to 1 mM, Figure 2
Description: 0.05 µg of the human olfactory receptor gene expression vector, 0.01 µg of RTP1S vector, 0.01 µg of the firefly luciferase vector pGL4.29 (Promega) containing a cAMP response element promoter, and 0.005 µg of the Renilla luciferase vector pGL4.74 (Promega) containing a thymidine kinase promoter were dissolved in 10 µL of Opti-MEM I (gibco) to prepare a gene solution (for one well). HEK293T cells were seeded at 100 µL per well in a 96-well plate (Biocoat, Corning) at a cell number that would reach confluence after 24 hours. The gene solution was added to each well using lipofection in accordance with the instructions for Lipofectamine 3000 to introduce the gene into the cells, which were then cultured at 37°C in a 5% carbon dioxide atmosphere for 24 hours.
After removing the culture medium, 60 µL of an odorant compound sample prepared in CD293 medium (gibco) (supplemented with 20 µM L-glutamine), at the concentration required for measurement, was added to each well. After stimulation for 3 hours, luciferase activity was measured in accordance with the instructions for the Dual-Luciferase Reporter Assay System (Promega). The response intensity of the olfactory receptor was determined using, as an index, a Fold Increase value obtained by dividing the luciferase activity generated by stimulation with the odorant compound by the luciferase activity generated in a test system free of the odorant compound.
For odorant substances whose response values in the luciferase reporter gene assay were equal to or greater than a predetermined threshold, the primary note from the odor-note information was extracted, and the proportion of each odor note was determined.
To extract the "dust odor" generated when aspartame is combined with certain fruit flavors, as described in Patent Literature 1, which is well-known as a "dust odor" of unknown causative substance, aspartame, trans-2-hexenal, and hexanal were mixed at a 1:1:1 (mass ratio) and gently heated at 60°C for one week, after which the reaction product was extracted with hexane. The present extract was fractionated by medium-pressure HPLC with a silica gel column using hexane and ethyl acetate, then fractionated by medium-pressure HPLC with an ODS column using water and acetonitrile, and further fractionated by high-pressure HPLC with an ODS column using water and acetonitrile, to obtain an odor solution containing "dust odor." This "dust odor" solution with unknown components was added to HEK293T cells expressing the olfactory receptor OR2AG2 gene at final concentrations of 0.05 mass%, 0.1 mass%, and 0.2 mass%, and a luciferase reporter gene assay was performed.

[2] = test system: olfactory receptor OR2AG1; details: Non Patent Literature 6; cited from earlier work
[3] = test system: olfactory receptor OR2AG2; experiment: Antagonist screening: suppression of OR2AG2 response by luciferase reporter gene assay (Normalized Response); format: cell-based, human
Description: The human olfactory receptor OR2AG2 gene expression vector was cloned, and HEK293T cells expressing the olfactory receptor OR2AG2 gene were used to perform an antagonist screening in which the effect of test substances on suppressing OR2AG2 response is measured by a luciferase reporter gene assay. In the luciferase reporter gene assay, each of approximately 500 test substances was individually mixed with each "dust odor" compound sample, and the Fold Increase value obtained in each test with the test substance mixed was calculated as the Normalized Response, assuming that the Fold Increase value obtained in the test without mixing any test substance was 1. The concentrations of the "dust odor" compounds used as samples were set as follows: a) 3-ethyl-2-pentylpyridine, 300 µM; b) 2-methoxy-3-isopropylpyrazine, 500 µM; c) 2-isobutyl-3-methoxypyrazine, 500 µM; and d) 2-sec-butyl-3-methoxypyrazine, 500 µM. […] As examples of antagonists thereby identified for each of the "dust odor" compounds a) to d), a) 2,4-decadienal, b) trans-2-nonenal, c) 2,4-undecadienal, and d) 2,4-decadienal were measured for their concentration-dependent effects in suppressing OR2AG2 response to each sample substance using a luciferase reporter gene assay. The concentrations of the samples were set as follows: a) 3-ethyl-2-pentylpyridine, 300 µM; b) 2-methoxy-3-isopropylpyrazine, 500 µM; c) 2-isobutyl-3-methoxypyrazine, 500 µM; and d) 2-sec-butyl-3-methoxypyrazine, 500 µM. The concentrations of the antagonists for each sample were set at 0 µM, 10 µM, 30 µM, 100 µM, and 300 µM.
As in (2-3) of Example 2, HEK293T cells expressing the olfactory receptor OR2AG2 gene were used to determine the effect of test substances in suppressing OR2AG2 response to an odor solution sample with unknown components containing "dust odor" by antagonist screening using a luciferase reporter gene assay. […] As an example of antagonist, the effect of trans-2-nonenal in suppressing OR2AG2 response to the "dust odor" solution with unknown components was measured by a luciferase reporter gene assay. The final concentration of the sample was 0.1 mass%, and the concentrations of trans-2-nonenal relative to the sample were 0 µM, 1 µM, 2 µM, and 4 µM.

[4] = test system: OR11A1; details: Patent Literature 2; cited from earlier work
[5] = test system: OR2M3; details: Patent Literature 2; cited from earlier work

## CCCCCc1ncccc1CC [3-ethyl-2-pentylpyridine]
[1]
  OR2AG2 response (Fold Increase value): trigger OR2AG2 response

## CCC(C)c1nccnc1OC (stereo not drawn) [2-sec-butyl-3-methoxypyrazine]
[1]
  OR2AG2 response (Fold Increase value): trigger OR2AG2 response
[2]
  response of olfactory receptor OR2AG1: responds

## CCCCCC=CC=CC=O [2,4-decadienal]
[3]; against 2-sec-butyl-3-methoxypyrazine 500 µM, test substance 1 µM to 1 mM
  Normalized Response: less than 1
[3]; against 3-ethyl-2-pentylpyridine 300 µM, test substance 1 µM to 1 mM
  Normalized Response: less than 1

## CC1CCCC2(C)CCCCC12O (stereo not drawn) [geosmin]
[4]
  response of olfactory receptor OR11A1: specifically respond

## CCCCCC/C=C/C=O [trans-2-nonenal]
[3]; against 0.1 mass% odor solution with unknown components containing "dust odor"
  Normalized Response: below 1
[3]; against 2-methoxy-3-isopropylpyrazine 500 µM, test substance 1 µM to 1 mM
  Normalized Response: less than 1

## CCCCCCC=CC=CC=O [2,4-undecadienal]
[3]; against 2-isobutyl-3-methoxypyrazine 500 µM, test substance 1 µM to 1 mM
  Normalized Response: less than 1

## COc1nccnc1C(C)C [2-methoxy-3-isopropylpyrazine]
[1]
  OR2AG2 response (Fold Increase value): trigger OR2AG2 response
[2]
  response of olfactory receptor OR2AG1: responds

## COc1nccnc1CC(C)C [2-isobutyl-3-methoxypyrazine]
[1]; 1 mM odorant, screening of 396 human olfactory receptors, Figure 1
  response of olfactory receptor OR2AG2 (Fold Increase value): extremely strong response; also recorded: strong and specific response
[1]
  OR2AG2 response (Fold Increase value): trigger OR2AG2 response
[2]
  response of olfactory receptor OR2AG1: responds

## CC1(O)CC2CCC1(C)C2(C)C (stereo not drawn) [2-methylisoborneol]
[5]
  response of olfactory receptor OR2M3: specifically respond
